Measurements as given in publication PMC6792352, “Limited Chemical Structural Diversity Found to Modulate Thyroid Hormone Receptor in the Tox21 Chemical Library” (Environmental Health Perspectives, 2019).
Where a name gives a salt, the structure may show the parent alone.

assay: in vitro; settings: rat, gh3-tre-luc cells, AC50 (uM) modified / 1000

For `C=CCOC(=O)CCCCCC` [Prop-2-en-1-yl heptanoate], which CC50 at 24 h is on record?
The CC50 at 24 h was over 90 µM.

Which CC50 at 24 h does the source give for `CCCCCCCCCCCCCCC(Br)C(=O)O` (stereo not drawn) [2-Bromohexadecanoic acid] here?
Its CC50 at 24 h is over 90 µM.

With `C=C(C)[C@@H]1CC=C(C=O)CC1` [l-Perillaldehyde] as the molecule, how does the CC50 at 24 h read?
Its CC50 at 24 h is over 90 µM.

With `OC[C@H]1O[C@@H]2O[C@H]3[C@H](O)[C@@H](O)[C@@H](O[C@H]4[C@H](O)[C@@H](O)[C@@H](O[C@H]5[C@H](O)[C@@H](O)[C@@H](O[C@H]6[C@H](O)[C@@H](O)[C@@H](O[C@H]7[C@H](O)[C@@H](O)[C@@H](O[C@H]8[C@H](O)[C@@H](O)[C@@H](O[C@H]1[C@H](O)[C@H]2O)O[C@@H]8CO)O[C@@H]7CO)O[C@@H]6CO)O[C@@H]5CO)O[C@@H]4CO)O[C@@H]3CO` [beta-Cyclodextrin] as the molecule, how does the CC50 at 24 h read?
The CC50 at 24 h was over 90 µM.

For `CCC(CO)(CO)CO` [2-Ethyl-2-(hydroxymethyl)-1,3-propanediol], which CC50 at 24 h is on record?
Its CC50 at 24 h is over 100 µM.

For `Cn1ccc2cc3c(cc21)CCN3C(=O)Nc1cccnc1` [SB 206553 hydrochloride], which CC50 at 24 h is on record?
Its CC50 at 24 h is over 50 µM.

Which CC50 at 24 h does the source give for `COc1ccc2c(c1OC)CN1CCc3cc4c(cc3[C@@H]1C2)OCO4` [Canadine] here?
The CC50 at 24 h was over 20 µM.

With `COC(=O)C(CN)c1c[nH]c2ccc(OC)cc12` (stereo not drawn) [Indorenate hydrochloride] as the molecule, how does the CC50 at 24 h read?
The CC50 at 24 h was over 50 µM.

With `COc1cc(C(=O)N2CCCCCCC2)cc(OC)c1OC` [Trocimine] as the molecule, how does the CC50 at 24 h read?
Its CC50 at 24 h is over 50 µM.

Which CC50 at 24 h does the source give for `Cc1cc(C)c(C)c(O)c1` [2,3,5-Trimethylphenol] here?
The CC50 at 24 h was over 90 µM.

Which CC50 at 24 h does the source give for `Cc1cc(=O)nc(C(C)C)[nH]1` [2-Isopropyl-6-methyl-4-pyrimidone] here?
Its CC50 at 24 h is over 90 µM.

For `c1ccc(CNc2ncnc3nc[nH]c23)cc1` [N-Benzyladenine], which CC50 at 24 h is on record?
The CC50 at 24 h was over 90 µM.

With `COC(=O)C1=C(C)NC(C)=C(C(=O)OCC(C)=O)C1c1ccccc1[N+](=O)[O-]` (stereo not drawn) [Aranidipine] as the molecule, how does the CC50 at 24 h read?
Its CC50 at 24 h is 8.18 µM.

Which CC50 at 24 h does the source give for `CCCCCCCC=O` [Octanal] here?
The CC50 at 24 h was over 90 µM.

For `CCOC(=O)Oc1c(OC)cc(C(=O)O[C@@H]2C[C@@H]3CN4CCc5c([nH]c6cc(OC)ccc56)[C@H]4C[C@@H]3[C@H](C(=O)OC)[C@H]2OC)cc1OC` [Syrosingopine], which CC50 at 24 h is on record?
Its CC50 at 24 h is over 20 µM.

For `CCC(C)N` (stereo not drawn) [2-Butanamine], which CC50 at 24 h is on record?
Its CC50 at 24 h is over 90 µM.

For `CO/N=C(\C(=O)N[C@@H]1C(=O)N2C(C(=O)O)=C(CSc3cnns3)CS[C@H]12)c1csc(N)n1` [Cefuzonam hydrochloride], which CC50 at 24 h is on record?
The CC50 at 24 h was over 50 µM.

Which CC50 at 24 h does the source give for `CC(C)[C@H]1CC[C@H](C)C[C@@H]1O` [(1S,2R,5S)-(+)-Menthol] here?
The CC50 at 24 h was over 90 µM.

Which CC50 at 24 h does the source give for `CCC(C)COC(C)=O` (stereo not drawn) [2-Methylbutyl acetate] here?
Its CC50 at 24 h is over 90 µM.

With `CC(C)(C)C(=O)C(=O)O` [3,3-Dimethyl-2-oxobutyric acid] as the molecule, how does the CC50 at 24 h read?
The CC50 at 24 h was over 90 µM.

With `CCOP(=S)(OCC)Oc1cc(C)nc(C(C)C)n1` [Diazinon] as the molecule, how does the CC50 at 24 h read?
Its CC50 at 24 h is over 90 µM.

Which CC50 at 24 h does the source give for `C[C@@](Cc1ccc(O)c(O)c1)(NN)C(=O)O` [Carbidopa] here?
Its CC50 at 24 h is over 50 µM.

For `Cc1cc(CC(C)CC(C)(C)C)n(O)c(=O)c1` (stereo not drawn) [Piroctone olamine], which CC50 at 24 h is on record?
Its CC50 at 24 h is 33 µM.

With `O=C(c1ccccc1O)c1ccccc1O` [2,2'-Dihydroxybenzophenone] as the molecule, how does the CC50 at 24 h read?
Its CC50 at 24 h is over 90 µM.

With `CCCN(CCC)C(=O)C(CCC(=O)OCCCN1CCN(CCOC(=O)Cc2c(C)n(C(=O)c3ccc(Cl)cc3)c3ccc(OC)cc23)CC1)NC(=O)c1ccccc1` (stereo not drawn) [Proglumetacin] as the molecule, how does the CC50 at 24 h read?
Its CC50 at 24 h is 10.5 µM.

For `CSCCC=O` [3-(Methylthio)propanal], which CC50 at 24 h is on record?
Its CC50 at 24 h is over 100 µM.

With `Cc1c(C(C)C)c(=O)n(-c2ccccc2)n1C` [Propyphenazone] as the molecule, how does the CC50 at 24 h read?
The CC50 at 24 h was over 50 µM.

Which CC50 at 24 h does the source give for `CN1C(=O)[C@@H](NC(=O)c2cc3ccccc3[nH]2)N=C(c2ccccc2)c2ccccc21` [Devazepide] here?
Its CC50 at 24 h is over 50 µM.

Which CC50 at 24 h does the source give for `Cc1nc(NS(=O)(=O)c2ccc(N)cc2)nc(C)c1Br` [Sulfabromomethazine] here?
The CC50 at 24 h was over 50 µM.

For `CC(=O)[C@H]1[C@H](C#N)C[C@H]2[C@@H]3CC=C4C[C@@H](O)CC[C@]4(C)[C@H]3CC[C@@]21C` [Pregnenolone carbonitrile], which CC50 at 24 h is on record?
The CC50 at 24 h was over 60 µM.

Which CC50 at 24 h does the source give for `COc1cc(NC(=O)CC(C)=O)c(OC)cc1Cl` [4'-Chloro-2',5'-dimethoxyacetoacetanilide] here?
The CC50 at 24 h was over 90 µM.

Which CC50 at 24 h does the source give for `O=C1CN=C(c2ccccc2)c2cc(Cl)ccc2N1` [Desmethyldiazepam] here?
Its CC50 at 24 h is over 50 µM.

With `Cc1ccc(N)c(S(=O)(=O)O)c1` [2-Amino-5-methylbenzenesulfonic acid] as the molecule, how does the CC50 at 24 h read?
The CC50 at 24 h was over 90 µM.

Which CC50 at 24 h does the source give for `C=CCn1c(=O)n(CC=C)c(=O)n(CC=C)c1=O` [Triallyl isocyanurate] here?
The CC50 at 24 h was over 90 µM.

Which CC50 at 24 h does the source give for `CCCCC(=O)N(Cc1ccc(-c2ccccc2-c2nnn[nH]2)cc1)[C@H](C(=O)O)C(C)C` [Valsartan] here?
The CC50 at 24 h was over 50 µM.

With `C[C@H]1O[C@@H](n2cc(F)c(=O)[nH]c2=O)[C@H](O)[C@@H]1O` [Doxifluridine] as the molecule, how does the CC50 at 24 h read?
Its CC50 at 24 h is over 50 µM.

With `CCCC(=O)OC/C=C(\C)CCC=C(C)C` [Geranyl butyrate] as the molecule, how does the CC50 at 24 h read?
Its CC50 at 24 h is over 90 µM.

For `O=C(O)c1ccccc1-n1cc(C(=O)O)c(=O)c2cc(Nc3c(F)cc(F)cc3Cl)c(Cl)cc21` [AVE9423], which CC50 at 24 h is on record?
The CC50 at 24 h was over 90 µM.

For `CN1C(=S)CN=C(c2ccccc2)c2cc(Cl)ccc21` [Sulazepam], which CC50 at 24 h is on record?
The CC50 at 24 h was over 50 µM.

Which CC50 at 24 h does the source give for `O=C(O)Cc1cc(I)c(Oc2ccc(O)c(I)c2)c(I)c1` [Tiratricol] here?
Its CC50 at 24 h is over 20 µM.

Which CC50 at 24 h does the source give for `CCCC(=O)OCCC(C)CCC=C(C)C` (stereo not drawn) [Citronellyl butyrate] here?
Its CC50 at 24 h is over 90 µM.

With `CN(C)c1ccc(SC#N)cc1` [4-(Dimethylamino)phenylthiocyanate] as the molecule, how does the CC50 at 24 h read?
The CC50 at 24 h was over 90 µM.

With `CCC(C(=O)NC(=O)NC(C)=O)c1ccccc1` (stereo not drawn) [Acetylpheneturide] as the molecule, how does the CC50 at 24 h read?
The CC50 at 24 h was over 50 µM.

Which CC50 at 24 h does the source give for `CCN(C)N=O` [N-Nitroso-N-methylethylamine] here?
The CC50 at 24 h was over 90 µM.

With `O=[N+]([O-])c1cc([N+](=O)[O-])c2ccc(S(=O)(=O)O)cc2c1O` [8-Hydroxy-5,7-dinitro-2-naphthalenesulfonic acid] as the molecule, how does the CC50 at 24 h read?
Its CC50 at 24 h is 65.4 µM.

For `CN1C(C(=O)Nc2ccccn2)=C(O)c2sc(Cl)cc2S1(=O)=O` [Lornoxicam], which CC50 at 24 h is on record?
The CC50 at 24 h was over 50 µM.

For `NC(=O)CN1CC(O)CC1=O` (stereo not drawn) [Oxiracetam], which CC50 at 24 h is on record?
The CC50 at 24 h was over 50 µM.

For `CCCCN(CCC(=O)OCC)C(C)=O` [Ethyl 3-(N-butylacetamido)propionate], which CC50 at 24 h is on record?
The CC50 at 24 h was over 90 µM.

With `C[N+](C)(C)CC1CO1` (stereo not drawn) [Glycidyl trimethylammonium chloride] as the molecule, how does the CC50 at 24 h read?
The CC50 at 24 h was over 90 µM.

For `OC[C@@H](O)[C@H](O)[C@H](O)[C@@H](O)CO` [D-Galactitol], which CC50 at 24 h is on record?
Its CC50 at 24 h is over 50 µM.

For `CC1(C)Cc2cccc(N)c2O1` [2,2-Dimethyl-2,3-dihydro-1-benzofuran-7-amine], which CC50 at 24 h is on record?
Its CC50 at 24 h is over 90 µM.

same assay, conditions: rat, gh3-tre-luc cells, AC50 (uM) modified / 1000, Tox21_110001=Tox21_112600; viability, 1 nM T3 present, 24 h

Which CC50 at 24 h does the source give for `CCCCCCC(=O)O[C@H]1CC[C@H]2[C@@H]3CC[C@H]4CC(=O)C=C(C)[C@]4(C)[C@H]3CC[C@]12C` [Methenolone enanthate] here?
The CC50 at 24 h was over 50 µM.

same assay, conditions: rat, gh3-tre-luc cells, AC50 (uM) modified / 1000, Tox21_110001=Tox21_112872; viability, 1 nM T3 present, 24 h

For `CCN(CC)C(=O)[C@@H]1C=C2c3cccc4[nH]cc(c34)C[C@H]2N(C)C1` [Lysergide], which CC50 at 24 h is on record?
Its CC50 at 24 h is over 200 µM.

same assay, conditions: rat, gh3-tre-luc cells, AC50 (uM) modified / 1000, Tox21_110001=Tox21_113227; viability, 1 nM T3 present, 24 h

For `CCOC(=O)C1(c2ccccc2)CCCN(C)CC1` (stereo not drawn) [Ethoheptazine hydrochloride], which CC50 at 24 h is on record?
Its CC50 at 24 h is over 50 µM.

same assay, conditions: rat, gh3-tre-luc cells, AC50 (uM) modified / 1000, Tox21_110001=Tox21_113508; viability, 1 nM T3 present, 24 h

With `CCN(CC)C(=O)[C@@H]1C=C2c3cccc4[nH]cc(c34)C[C@H]2N(C)C1` [Lysergide] as the molecule, how does the CC50 at 24 h read?
Its CC50 at 24 h is over 50 µM.

same assay, conditions: rat, gh3-tre-luc cells, AC50 (uM) modified / 1000, Tox21_110001=Tox21_202753; viability, 1 nM T3 present, 24 h

With `O=P(O)(O)CN(CP(=O)(O)O)CP(=O)(O)O` [Aminotrimethylene phosphonic acid] as the molecule, how does the CC50 at 24 h read?
The CC50 at 24 h was over 20 µM.

same assay, conditions: rat, gh3-tre-luc cells, AC50 (uM) modified / 1000, Tox21_110001=Tox21_300544; viability, 1 nM T3 present, 24 h

For `O=S(=O)(O)C(F)(F)C(F)(F)C(F)(F)C(F)(F)C(F)(F)C(F)(F)C(F)(F)C(F)(F)F` [Potassium perfluorooctanesulfonate], which CC50 at 24 h is on record?
The CC50 at 24 h was 49.4 µM.

same assay, conditions: rat, gh3-tre-luc cells, AC50 (uM) modified / 1000, Tox21_110001=Tox21_300702; viability, 1 nM T3 present, 24 h

Which CC50 at 24 h does the source give for `CCNc1nc(NCC)nc(SC)n1` [Simetryn] here?
The CC50 at 24 h was over 90 µM.

same assay, conditions: rat, gh3-tre-luc cells, AC50 (uM) modified / 1000, Tox21_110001=Tox21_301196; viability, 1 nM T3 present, 24 h

With `N#CCC#N` [Propanedinitrile] as the molecule, how does the CC50 at 24 h read?
The CC50 at 24 h was 40.5 µM.

same assay, conditions: rat, gh3-tre-luc cells, AC50 (uM) modified / 1000, Tox21_110001=Tox21_302560; viability, 1 nM T3 present, 24 h

With `Nc1ccccc1C(=O)Oc1ccc2ccccc2c1` [Naphthalen-2-yl 2-aminobenzoate] as the molecule, how does the CC50 at 24 h read?
Its CC50 at 24 h is over 90 µM.
